The text below walks through data of patent EP0554004A2, “Cephem compounds and antibacterial agents” (KATAYAMA SEIYAKUSYO CO. Ltd., priority 1992, dated 1993).

One assay has as its system clinically isolated MRSA. Description: Antibacterial potency against clinically isolated MRSA (Test Example 2). Type of assay: cell-based, methicillin-resistant Staphylococcus aureus. Conditions: Staphylococcus aureus, 52 strains of clinically isolated MRSA; for MIC50: concentration inhibiting growth of 50% of the strains (Test Example 2); for MIC90: concentration inhibiting growth of 90% of the strains (Test Example 2). The method, then: A test on the antibacterial potency against clinically isolated MRSA was conducted in the following way.
52 strains of clinically isolated MRSA were used, and MIC was determined for each of the strains according to the standard method of the Japan Chemotherapical Society as in Test Example 1. The minimum growth inhibitory concentration which inhibited growth of 50% of the strains tested was expressed as MIC50 (µg/ml), and the minimum growth inhibitory concentration which inhibited growth of 90% of the strains was expressed as MIC90 (µg/ml).
In this test, FMOX (flomoxef), IPM/CS (imipenem/cilastatin), CMZ (cefmetazole), MINO (minocycline) and DMPPC (methicillin) were used as control agents.

Assay [1] concerns Citrobacter freundii ATCC 8090. In words: MIC against standard strains (Test Example 1). Particulars: ATCC8090, Muller-Hinton agar, 37°C overnight. Type of assay: cell-based. The method, then: (§1) By using each test strain cultured overnight at 37°C in a Muller-Hinton broth, there was prepared a bacterial solution with a bacterial cell population of 1 x 10^6 CFU/mi of the same bouillon. The bacterial solution was inoculated into the Muller-Hinton agar media each containing respectively one test agent and, after overnight incubation at 37°C, the minimum concentration that inhibited growth of the bacteria was determined and shown as MIC also in Table 1.
(§2) Staphylococcus aureus 167 and Staphylococcus aureus 195 used in the test were MRSA. CTM (cefotiam) and FMOX (flomoxef) were used as control agents.

In assay [2] the test system is Escherichia coli CSH2 (RK1). Description: MIC against standard strains (Test Example 1). Type of assay: cell-based. Here is the method: as §1, §2
Assay [3] concerns Serratia marcescens IAM 1184. Description: MIC against standard strains (Test Example 1). Type of assay: cell-based. Particulars: IAM1184, Muller-Hinton agar, 37°C overnight. Here is the method:
as §1, §2

Assay [4] deals with Micrococcus luteus ATCC 9341. Description: MIC against standard strains (Test Example 1). Type of assay: cell-based. Conditions: ATCC9341, Muller-Hinton agar, 37°C overnight. Here is the method:
as §1, §2

Assay [5] deals with Pseudomonas aeruginosa NCTC 10490. Description: MIC against standard strains (Test Example 1). Type of assay: cell-based. Conditions: NCTC10490, Muller-Hinton agar, 37°C overnight. Here is the method: as §1, §2
Assay [6] has as its system Staphylococcus aureus 209P JC-1. Description: MIC against standard strains (Test Example 1). Type of assay: cell-based. Conditions: Muller-Hinton agar, 37°C overnight. The method, then: as §1, §2
Assay [7] relates to Staphylococcus aureus Smith. Description: MIC against standard strains (Test Example 1). Type of assay: cell-based. Particulars: Muller-Hinton agar, 37°C overnight. Here is the method: as §1, §2
The test system of assay [8] is Staphylococcus aureus 195. In words: MIC against standard strains (Test Example 1). Conditions: Staphylococcus aureus 195 (MRSA); Muller-Hinton agar, 37°C overnight. Type of assay: cell-based. Here is the method:
as §1, §2

Assay [9] concerns Enterobacter cloacae ATCC 13407. In words: MIC against standard strains (Test Example 1). Type of assay: cell-based. Conditions: ATCC13407, Muller-Hinton agar, 37°C overnight. Here is the method: as §1, §2
Assay [10] deals with Escherichia coli NIHJ JC-2. Description: MIC against standard strains (Test Example 1). Type of assay: cell-based. Conditions: NIHJJC2, Muller-Hinton agar, 37°C overnight. The method, then:
as §1, §2

Assay [11] relates to Staphylococcus epidermidis IAM 1296. In words: MIC against standard strains (Test Example 1). Type of assay: cell-based. Particulars: IAM1296, Muller-Hinton agar, 37°C overnight. Here is the method: as §1, §2
The subject of assay [12] is Bacillus subtilis ATCC 6633. Description: MIC against standard strains (Test Example 1). Type of assay: cell-based. Conditions: ATCC6633, Muller-Hinton agar, 37°C overnight. The method, then: as §1, §2
The subject of assay [13] is Psuedomonas aeruginosa IFO 3445. In words: MIC against standard strains (Test Example 1). Type of assay: cell-based. Conditions: Muller-Hinton agar, 37°C overnight. Here is the method: as §1, §2
Assay [14] concerns Staphylococcus aureus 167. In words: MIC against standard strains (Test Example 1). Type of assay: cell-based. Conditions: Staphylococcus aureus 167 (MRSA); Muller-Hinton agar, 37°C overnight. The method, then: as §1, §2
Assay [15] concerns Klebsiella pneumoniae No. 42. Description: MIC against standard strains (Test Example 1). Conditions: Muller-Hinton agar, 37°C overnight. Type of assay: cell-based. Here is the method: as §1, §2
The test system of assay [16] is Klebsiella pneumoniae IFO 3317. Description: MIC against standard strains (Test Example 1). Type of assay: cell-based. Conditions: IFO3317, Muller-Hinton agar, 37°C overnight. Here is the method:
as §1, §2

The next assay concerns Proteus vulgalis OX-19. Description: MIC against standard strains (Test Example 1). Type of assay: cell-based. Conditions: Muller-Hinton agar, 37°C overnight. Here is the method:
as §1, §2

In assay [17] the test system is Escherichia coli CSH2 (RE45). In words: MIC against standard strains (Test Example 1). Type of assay: cell-based. The method, then: as §1, §2
Assay [18] has as its system Proteus mirabilis IFO 3849. In words: MIC against standard strains (Test Example 1). Type of assay: cell-based. Conditions: IFO3849, Muller-Hinton agar, 37°C overnight. Here is the method:
as §1, §2

For assay [19], the system named is Morganella morganii IFO 3848. In words: MIC against standard strains (Test Example 1). Type of assay: cell-based. Particulars: IFO3848, Muller-Hinton agar, 37°C overnight. The method, then:
as §1, §2

The structures appear in SMILES notation. Structures can show the parent of a compound that is named as a salt.

In general, MIC50 refers to an inhibitory concentration at the 50% level, which refers to growth in some studies and to a panel of isolates in others. Higher therefore signals lower susceptibility. In general, MIC90 refers to the lowest concentration that inhibits either 90% of growth or 90% of the strains tested, depending on the study. Read a low MIC90 as greater potency. The term MIC denotes the least concentration at which growth counts as inhibited. The low end stands for inhibition by little substance, the high end for a need for much substance. On to `NC(=O)Nc1ccc[n+](CC2=C(C(=O)[O-])N3C(=O)[C@@H](NC(=O)/C(=N\O)c4csc(N)n4)[C@H]3SC2)c1` [Compound (4), 7β-[2-(2-aminothiazol-4-yl)-2-syn-hydroxyiminoacetamido]-3-[(3-ureido-1-pyridinio)methyl]-3-cephem-4-carboxylic acid chloride], for which the MIC50 in the assay with clinically isolated MRSA stood at 2.17 µg/mL. The MIC90 in the assay on clinically isolated MRSA came to 6.16 µg/mL. Also, the MIC in [1] came out at 0.1 µg/mL; in assay [2], 0.78 µg/mL; in assay [3] it was 0.1 µg/mL; in assay [4], 0.39 µg/mL; in assay [5], 1.56 µg/mL; in assay [6], 0.1 µg/mL. Also, the minimum inhibitory concentration (MIC) came out at 0.2 µg/mL in assay [7]; 3.13 µg/mL in assay [8]; 0.39 µg/mL in [9]; 0.1 µg/mL in assay [10]; 0.05 µg/mL in [11]; 0.2 µg/mL in assay [12]. The MIC in assay [13] was found to be 12.5 µg/mL; in [14] it was 12.5 µg/mL; in [15], 0.39 µg/mL; in [16] it was 0.1 µg/mL; in the assay on Proteus vulgalis OX-19, 0.78 µg/mL; in assay [17], 0.39 µg/mL. The figures for the minimum inhibitory concentration (MIC) in assay [18] and in [19] were 0.1 µg/mL and 0.05 µg/mL, respectively.

Consider `NC(=O)c1ccc[n+](CC2=C(C(=O)[O-])N3C(=O)[C@@H](NC(=O)/C(=N\O)c4csc(N)n4)[C@H]3SC2)c1` [Compound (1), 7β-[2-(2-aminothiazol-4-yl)-2-syn-hydroxyiminoacetamido]-3-[(3-carbamoyl-1-pyridinio)methyl]-3-cephem-4-carboxylic acid chloride], for which the MIC50 against clinically isolated MRSA was determined as 3.79 µg/mL. The molecule also showed an MIC90 in the assay on clinically isolated MRSA of 11.4 µg/mL. Also, the minimum inhibitory concentration (MIC) was found to be 0.39 µg/mL in [1]; 0.78 µg/mL in [2]; 0.2 µg/mL in assay [3]; 0.05 µg/mL in assay [4]; 3.13 µg/mL in [5]; 0.2 µg/mL in [6]. Also, the minimum inhibitory concentration (MIC) in assay [7] came out at 0.39 µg/mL; in assay [8], 3.13 µg/mL; in assay [9] it was 0.78 µg/mL; in assay [10], 0.39 µg/mL; in [11] it was 0.1 µg/mL; in assay [12], 0.39 µg/mL. Moreover, the MIC in assay [13] worked out at 25 µg/mL; in [14], 6.25 µg/mL; in assay [15] it was 0.78 µg/mL; in assay [16], 0.2 µg/mL; in the assay with Proteus vulgalis OX-19 it was 0.78 µg/mL; in assay [17], 0.39 µg/mL. Besides, the minimum inhibitory concentration (MIC) in [18] and in [19] was 0.39 µg/mL each time.

In the assay with clinically isolated MRSA, `CC(=O)c1ccc[n+](CC2=C(C(=O)[O-])N3C(=O)[C@@H](NC(=O)/C(=N\O)c4csc(N)n4)[C@H]3SC2)c1` [Compound (2), 7β-[2-(2-aminothiazol-4-yl)-2-syn-hydroxyiminoacetamido]-3-[(3-acetyl-1-pyridinio)methyl]-3-cephem-4-carboxylic acid chloride] yielded an MIC50 of 3.77 µg/mL. Besides, the MIC90 with clinically isolated MRSA was 9.47 µg/mL. The minimum inhibitory concentration (MIC) was determined as 0.39 µg/mL in [1]; 0.78 µg/mL in [2]; 0.39 µg/mL in assay [3]; 0.1 µg/mL in [4]; 3.13 µg/mL in assay [5]; 0.2 µg/mL in [6]. In addition, the MIC was 0.39 µg/mL in assay [7]; 6.25 µg/mL in assay [8]; 1.56 µg/mL in assay [9]; 0.39 µg/mL in assay [10]; 0.2 µg/mL in assay [11]; 0.78 µg/mL in assay [12]. In addition, the minimal inhibitory concentration (MIC) came out at 25 µg/mL in assay [13]; 12.5 µg/mL in assay [14]; 0.78 µg/mL in assay [15]; 0.39 µg/mL in assay [16]; 0.39 µg/mL in the assay with Proteus vulgalis OX-19; 0.78 µg/mL in assay [17]. The MIC in [18] was 0.39 µg/mL; in assay [19], 0.2 µg/mL.

`Nc1nc(/C(=N/O)C(=O)N[C@@H]2C(=O)N3C(C(=O)[O-])=C(C[n+]4ccc(-c5csc(N)n5)cc4)CS[C@H]23)cs1` [Compound (5), 7β-[2-(2-aminothiazol-4-yl)-2-syn-hydroxyiminoacetamido]-3-[[4-(2-aminothiazol-4-yl)-1-pyridi-i-nio]methyl]-3-cephem-4-carboxylic acid chloride] displayed an MIC50 in the assay with clinically isolated MRSA of 3.13 µg/mL. The same molecule had an MIC90 against clinically isolated MRSA of 8.69 µg/mL. Also, the minimal inhibitory concentration (MIC) in assay [1] is 0.2 µg/mL; in assay [2] it was 0.2 µg/mL; in assay [3], 0.2 µg/mL; in assay [4], 0.025 µg/mL; in assay [5], 1.56 µg/mL; in [6] it was 0.2 µg/mL. Besides, the MIC is 0.2 µg/mL in [7]; 3.13 µg/mL in assay [8]; 0.78 µg/mL in assay [9]; 0.2 µg/mL in assay [10]; 0.1 µg/mL in [11]; 0.2 µg/mL in assay [12]. The minimal inhibitory concentration (MIC) in [13] turned out to be 25 µg/mL; in assay [14], 6.25 µg/mL; in assay [15], 0.1 µg/mL; in assay [16], 0.05 µg/mL; against Proteus vulgalis OX-19, 0.2 µg/mL; in assay [17], 0.05 µg/mL. Moreover, the MIC in assay [18] was 0.1 µg/mL; in assay [19] it was 0.05 µg/mL.

Take `Nc1ccc[n+](CC2=C(C(=O)[O-])N3C(=O)[C@@H](NC(=O)/C(=N\O)c4csc(N)n4)[C@H]3SC2)c1` [Compound (3), 7β-[2-(2-aminothiazol-4-yl)-2-syn-hydroxyiminoacetamido]-3-[(3-amino-1-pyridinio)methyl]-3-cephem-4-carboxylate hydrochloride]: the MIC50 with clinically isolated MRSA came to 3.94 µg/mL. The MIC90 against clinically isolated MRSA is 9.21 µg/mL. Moreover, the MIC was 0.2 µg/mL in assay [1]; 0.39 µg/mL in assay [2]; 0.1 µg/mL in [3]; 0.05 µg/mL in assay [4]; 3.13 µg/mL in assay [5]; 0.2 µg/mL in assay [6]. Further, the minimum inhibitory concentration (MIC) stood at 0.39 µg/mL in [7]; 3.13 µg/mL in assay [8]; 3.13 µg/mL in assay [9]; 0.2 µg/mL in assay [10]; 0.1 µg/mL in assay [11]; 0.2 µg/mL in [12]. The MIC in [13] was determined as 6.25 µg/mL; in assay [14], 12.5 µg/mL; in assay [15] it was 0.2 µg/mL; in assay [16] it was 0.1 µg/mL; against Proteus vulgalis OX-19, 0.39 µg/mL; in assay [17], 0.2 µg/mL. For the same molecule, the minimum inhibitory concentration (MIC) in assay [18] is 0.2 µg/mL; in assay [19] it was 0.05 µg/mL.
